# Test results: patent publication US7462630B2, “Diarylalkene derivatives and novel diarylalkane derivatives” (Ajinomoto Co., Inc., priority 2001, dated 2008)
# Columns and labels:
# L-type calcium channel = molecular target: T1, L-type calcium channel (Rattus norvegicus, UniProt P22002); assay: Antagonistic activity on L-type calcium channel (relaxation response against KCl-induced contraction of isolated rat thoracic aorta); conditions: read-out: Antagonistic action on L-type calcium channels pIC50 (converted)
# T1 construct: relaxation response against the KCl-induced contraction of isolated rat thoracic aorta was employed; from tissue; host or cells: endothelium-denuded thoracic aorta rings of Wistar rat
# Protocol: The antagonistic activity of the new diarylalkene derivatives and diarylalkane derivatives of the present invention to inhibit L-type calcium channel was determined by the following method in which the relaxation response against the KCl-induced contraction of isolated rat thoracic aorta was employed.
# The slips of thoracic aorta isolated from a Wistar rat were used. The aorta was cut to obtain ring-shaped samples having a width of about 3 mm. The endothelial cells of the samples were mechanically removed. The samples were suspended in a strain gage in Tyrode's solution (158.3 mM of NaCl, 4.0 mM of KCl, 1.05 mM of MgCl2, 0.42 mM of NaH2PO4, 10 mM of NaHCO3, 2 mM of CaCl2 and 5 mM of glucose) in which a gaseous mixture of O2 (95%) and CO2 (5%) was introduced. A static tension of 2 g was applied thereto. The tension of the blood vessel was amplified with a transducer and a tension amplifier (EF-601G; Nihon Koden Corporation) and recorded with a multi-pen recorder (Rikadenki Kogyo Co., Ltd.). The experiments were conducted at 37° C.
# After the tension had been stabilized, the nutrient solution in the sample tank was replaced with High K^+ Tyrode's solution (112.3 mM of NaCl, 50 mM of KCl, 1.05 mM of MgCl2, 0.42 mM of NaH2PO4, 10 mM of NaHCO3, 2 mM of CaCl2 and 5 mM of glucose) to conduct the contraction reaction. Thirty minutes after, the solution in the sample tank was replaced with the normal Tyrode's solution. The solution in the sample tank was again replaced with the High K^+ Tyrode's solution and the contraction reaction was observed. After attaining the maximum contraction reaction, the test compound was cumulatively added at intervals of 90 minutes to attain concentrations of 10^−9, 10^−8, 10^−7 and 10^−6 M. The inhibitory rate of the test compound against the maximum contraction response was employed as the index of the antagonistic activity on L-type calcium channels.
# The value of pIC50 indicates the antagonistic activity of the test compound, i. e. the negative logarithm of the concentration of the test compound necessitated for the 50% inhibition.
# N-type calcium channel = molecular target: T2, N-type calcium channel (Homo sapiens, UniProt Q00975); assay: Antagonistic activity on N-type calcium channel (fluorescence dye method, KCl-stimulated intracellular calcium change in IMR-32 cells with 1 μM Nifedipine); assay type: cell-based; conditions: 10 μM test compound, 60 mM KCl stimulation, read-out: Antagonistic activity on N-type calcium channels at 10 μM inhibition rate (%)
# T2 construct: host or cells: IMR-32 human neuroblastoma cells, differentiated with dibutyl cAMP and 5-bromodeoxyuridine
# T2 sequence (Q00975 whole entry): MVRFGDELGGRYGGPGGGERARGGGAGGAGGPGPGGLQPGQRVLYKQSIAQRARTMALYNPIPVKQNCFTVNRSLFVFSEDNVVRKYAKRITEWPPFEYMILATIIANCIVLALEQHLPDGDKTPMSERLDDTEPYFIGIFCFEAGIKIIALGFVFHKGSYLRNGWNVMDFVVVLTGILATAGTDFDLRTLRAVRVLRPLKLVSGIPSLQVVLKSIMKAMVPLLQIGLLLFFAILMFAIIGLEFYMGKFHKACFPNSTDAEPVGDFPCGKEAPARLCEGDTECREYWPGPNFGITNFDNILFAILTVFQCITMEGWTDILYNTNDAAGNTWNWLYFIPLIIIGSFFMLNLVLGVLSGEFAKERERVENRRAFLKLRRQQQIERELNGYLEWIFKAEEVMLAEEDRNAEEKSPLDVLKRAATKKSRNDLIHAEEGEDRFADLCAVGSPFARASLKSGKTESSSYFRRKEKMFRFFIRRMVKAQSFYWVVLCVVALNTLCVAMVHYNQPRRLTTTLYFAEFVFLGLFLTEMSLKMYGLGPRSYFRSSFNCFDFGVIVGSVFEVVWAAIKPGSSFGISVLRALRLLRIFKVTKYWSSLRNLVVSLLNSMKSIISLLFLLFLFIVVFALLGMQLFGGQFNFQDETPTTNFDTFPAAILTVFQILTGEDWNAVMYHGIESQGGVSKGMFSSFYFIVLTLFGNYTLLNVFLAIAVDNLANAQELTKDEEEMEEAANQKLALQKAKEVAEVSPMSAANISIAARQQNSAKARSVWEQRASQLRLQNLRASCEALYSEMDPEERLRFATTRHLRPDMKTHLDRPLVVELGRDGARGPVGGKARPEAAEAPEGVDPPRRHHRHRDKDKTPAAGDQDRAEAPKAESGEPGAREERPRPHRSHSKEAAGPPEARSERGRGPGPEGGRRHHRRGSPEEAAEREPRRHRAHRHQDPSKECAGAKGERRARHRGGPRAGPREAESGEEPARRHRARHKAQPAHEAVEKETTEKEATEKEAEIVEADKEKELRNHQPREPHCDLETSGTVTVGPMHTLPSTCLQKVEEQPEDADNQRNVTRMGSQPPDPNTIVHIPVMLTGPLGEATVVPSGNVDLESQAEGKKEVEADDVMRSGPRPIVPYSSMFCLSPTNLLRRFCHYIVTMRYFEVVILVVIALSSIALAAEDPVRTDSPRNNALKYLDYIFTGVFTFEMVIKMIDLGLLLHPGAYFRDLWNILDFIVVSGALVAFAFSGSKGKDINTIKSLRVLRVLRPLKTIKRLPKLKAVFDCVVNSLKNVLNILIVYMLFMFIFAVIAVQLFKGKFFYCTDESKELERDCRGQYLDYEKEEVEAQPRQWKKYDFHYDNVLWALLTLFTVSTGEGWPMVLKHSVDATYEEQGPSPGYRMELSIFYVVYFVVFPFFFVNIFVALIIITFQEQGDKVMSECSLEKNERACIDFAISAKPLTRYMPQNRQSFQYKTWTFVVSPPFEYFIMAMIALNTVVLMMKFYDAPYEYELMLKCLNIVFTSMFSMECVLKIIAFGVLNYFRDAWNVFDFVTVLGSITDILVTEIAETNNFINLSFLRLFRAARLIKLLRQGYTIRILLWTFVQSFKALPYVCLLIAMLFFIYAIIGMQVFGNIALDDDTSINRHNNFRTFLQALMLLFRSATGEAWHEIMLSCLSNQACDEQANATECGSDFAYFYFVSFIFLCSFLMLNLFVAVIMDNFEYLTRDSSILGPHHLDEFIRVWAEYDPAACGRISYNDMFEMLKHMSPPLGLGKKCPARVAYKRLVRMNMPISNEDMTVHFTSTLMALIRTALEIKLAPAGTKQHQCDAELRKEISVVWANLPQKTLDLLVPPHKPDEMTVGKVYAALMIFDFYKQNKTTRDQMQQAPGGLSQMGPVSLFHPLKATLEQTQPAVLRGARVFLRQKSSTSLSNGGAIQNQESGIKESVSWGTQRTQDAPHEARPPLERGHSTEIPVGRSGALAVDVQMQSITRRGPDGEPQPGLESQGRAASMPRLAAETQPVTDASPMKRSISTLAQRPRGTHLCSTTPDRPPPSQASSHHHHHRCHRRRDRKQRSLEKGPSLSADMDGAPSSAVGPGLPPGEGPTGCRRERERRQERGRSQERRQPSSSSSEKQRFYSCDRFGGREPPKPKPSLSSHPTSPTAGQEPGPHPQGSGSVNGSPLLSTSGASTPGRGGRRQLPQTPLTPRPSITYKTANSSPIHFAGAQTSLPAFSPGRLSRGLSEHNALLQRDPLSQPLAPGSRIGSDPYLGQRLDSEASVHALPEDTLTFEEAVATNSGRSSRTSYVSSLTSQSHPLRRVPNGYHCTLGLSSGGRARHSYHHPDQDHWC
# T2 sequence (P54284 whole entry partner): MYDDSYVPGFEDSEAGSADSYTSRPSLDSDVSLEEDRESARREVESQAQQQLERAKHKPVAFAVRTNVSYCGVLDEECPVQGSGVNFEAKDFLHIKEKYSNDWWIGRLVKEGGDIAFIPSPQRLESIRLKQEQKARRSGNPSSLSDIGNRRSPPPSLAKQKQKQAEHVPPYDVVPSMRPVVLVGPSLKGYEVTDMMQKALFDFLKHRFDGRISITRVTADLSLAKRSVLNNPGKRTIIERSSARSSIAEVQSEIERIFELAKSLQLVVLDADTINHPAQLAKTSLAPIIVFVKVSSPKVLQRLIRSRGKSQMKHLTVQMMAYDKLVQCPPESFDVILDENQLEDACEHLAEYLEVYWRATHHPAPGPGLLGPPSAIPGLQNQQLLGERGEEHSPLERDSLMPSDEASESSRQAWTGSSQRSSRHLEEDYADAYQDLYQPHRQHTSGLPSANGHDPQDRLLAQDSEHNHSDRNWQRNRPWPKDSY
# T2 sequence (P54289 25-956 partner limits assumed): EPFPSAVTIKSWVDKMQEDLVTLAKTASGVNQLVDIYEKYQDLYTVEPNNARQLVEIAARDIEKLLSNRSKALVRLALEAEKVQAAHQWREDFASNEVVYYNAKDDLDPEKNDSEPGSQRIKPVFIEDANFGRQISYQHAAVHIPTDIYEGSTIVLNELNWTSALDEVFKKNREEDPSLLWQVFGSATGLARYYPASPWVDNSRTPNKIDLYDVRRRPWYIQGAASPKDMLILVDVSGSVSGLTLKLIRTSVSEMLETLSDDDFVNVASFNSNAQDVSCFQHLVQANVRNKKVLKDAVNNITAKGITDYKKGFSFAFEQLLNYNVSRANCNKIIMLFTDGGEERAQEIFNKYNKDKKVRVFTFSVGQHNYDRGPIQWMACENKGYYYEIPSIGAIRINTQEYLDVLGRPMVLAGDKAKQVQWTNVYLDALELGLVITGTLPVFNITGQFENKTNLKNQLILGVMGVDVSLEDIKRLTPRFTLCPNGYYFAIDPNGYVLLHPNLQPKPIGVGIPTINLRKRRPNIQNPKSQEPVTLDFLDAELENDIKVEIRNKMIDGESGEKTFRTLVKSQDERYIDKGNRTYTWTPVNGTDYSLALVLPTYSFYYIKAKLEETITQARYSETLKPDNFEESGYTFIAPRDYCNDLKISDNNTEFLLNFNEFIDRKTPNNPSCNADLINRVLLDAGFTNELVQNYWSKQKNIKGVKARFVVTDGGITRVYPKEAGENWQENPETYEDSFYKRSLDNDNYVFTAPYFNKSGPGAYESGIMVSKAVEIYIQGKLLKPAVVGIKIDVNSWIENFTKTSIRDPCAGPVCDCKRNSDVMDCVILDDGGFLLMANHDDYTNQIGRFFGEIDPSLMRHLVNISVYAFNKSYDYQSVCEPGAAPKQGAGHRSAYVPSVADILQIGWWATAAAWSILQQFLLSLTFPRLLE
# T2 sequence (P54289 957-1103 partner limits assumed): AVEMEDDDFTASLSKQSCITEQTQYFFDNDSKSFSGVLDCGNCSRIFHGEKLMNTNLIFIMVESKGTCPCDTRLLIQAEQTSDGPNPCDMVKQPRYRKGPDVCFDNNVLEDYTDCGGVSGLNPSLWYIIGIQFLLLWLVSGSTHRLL
# Protocol: Human neuroblastoma cells IMR-32 were obtained from ATCC (American Type Culture Collection). The medium used was a Phenol Red-free Eagle minimum essential medium containing earle's salts (GIBCO) supplemented with 2 mM of L-glutamine (GIBCO), 1 mM of sodium pyruvate (pH 6.5) (GIBCO), antibiotic/antimycotic mixture (GIBCO) and 10% fetal calf serum (Cell Culture Technologies). Three ml of 1×10^5 cells/ml IMR-32 cells were spread on the glass bottom of a dish (Iwaki Glsss Co., Ltd.) having a diameter of 35 mm which had been treated with poly-L-lysin (SIGMA) and collagen (COLLAGEN VITROGEN 100; Collagen Co.). After the culture for 1 day, 1 mM (final concentration) of dibutyl cAMP and 2.5 μM (final concentration) of 5-bromodeoxyuridine (SIGMA) were added. After the culture for additional 10 to 14 days, the cells were subjected to the activity determination.
# The medium for IMR-32 cells thus prepared was replaced with 1 ml of Phenol Red-free Eale minimum essential medium (GIBCO) containing 2.5 μM fura-2/AM (Dojin Kagaku, Co.) and earle's salts supplement, and the incubation was conducted at 37° C. for 30 minutes. Then the medium was replaced with a recording medium (20 mM of HEPES-KOH, 115 mM of NaCl, 5.4 mM of KCl, 0.8 mM of MgCl2, 1.8 mM of CaCl2 and 13.8 mM of D-glucose). Antagonistic activity on N-type calcium channel was determined and analyzed using a fluorescence microscope (Nikon Corporation) and an image analysis device ARGUS 50 (Hamamatsu Photonics). In particular, a recording medium (20 mM of HEPES-KOH, 115 mM of NaCl, 5.4 mM of KCl, 0.8 mM of MgCl2, 1.8 mM of CaCl2 and 13.8 mM of D-glucose) containing 1 μM of Nifedipine was given to the cells by reflux by a Y-tube method for 2 minutes. Then a stimulating agent containing 60 mM of potassium chloride was rapidly given by the Y-tube method. The calcium concentration change in the cells in this step was shown as the N-type calcium channel activity. Then stimulating agents containing 60 mM of potassium chloride and 0.1, 1 or 10 μM of the test compound were successively and rapidly given to the cells by the Y-tube method to determine the change in the intracellular calcium concentration. The antagonistic activity on N-type calcium channel was calculated from the inhibition rate (%) at a concentration of 10 μM.
SMILES,IC50 (L-type calcium channel) [nM],inhibition at 10 µM (N-type calcium channel) [%]
"CC(C)(C)OC(=O)NCCCNC(=O)C=C1c2ccccc2C=Cc2ccccc21 [Example 41, t-butyl 3-[(5H-dibenzo[a,d][7]annulen-5-ylidenacetyl)amino]-propylcarbamate]",1260,76
"CC(C)(C)C(=O)N[C@@H](CO)CCC(=O)N1CCC(=C2c3ccccc3C=Cc3ccccc32)CC1 [Example 72, (R)-N-[4-[4-(5H-dibenzo[a,d][7]annulen-5-ylidene)-1-piperidinyl]-1-(hydroxylmethyl)-4-oxobutyl]-2,2-dimethylpropanamide]",794,81
"CCOC(=O)N[C@@H](CO)CC(=O)N1CCC(=C2c3ccccc3C=Cc3ccccc32)CC1 [Example 73, (R)-ethyl3-[4-(5H-dibenzo[a,d][7]annulen-5-ylidene)-1-piperidinyl]-1-(hydroxymethyl)-3-oxopropylcarbamate]",2000,75
"CC(C)(C)OC(=O)N[C@@H](CO)CC(=O)N1CCC(=C2c3ccccc3Sc3ccccc32)CC1 [Example 76, tert-butyl (1R)-1-(hydroxymethyl)-3-oxo-3-[4-(9H-thioxanthen-9-ylidene)-1-piperidinyl]propylcarbamate]",794,85
CC(C)(C)C(=O)N[C@H](CO)CCC(=O)N1CCC(=C2c3ccccc3CCc3ccccc32)CC1 [Example 78],2510,84

# Other lines, results leading:
IC50 (L-type calcium channel) [nM],inhibition at 10 µM (N-type calcium channel) [%],SMILES
1000,67,"CC(C)(C)OC(=O)NCC(=O)N1CCC(=C2c3ccccc3C=Cc3ccccc32)CC1 [Example 1, t-butyl 2-[4-(5H-dibenzo[a,d][7]annulen-5-ylidene)-1-piperidinyl]-2-oxoethylcarbamate]"
501,83,"CC(C)(C)NC(=O)CCC(=O)N1CCC(=C2c3ccccc3C=Cc3ccccc32)CC1 [Example 9, N-(t-butyl)-4-[4-(5H-dibenzo[a,d][7]annulen-5-ylidene)-1-piperidinyl]-4-oxobutanamide]"
1260,75,"CC(C)(C)OC(=O)NCC(=O)N1CCC(=C2c3ccccc3CCc3ccccc32)CC1 [Example 16, t-butyl 2-[4(10,11-dihydro-5H-dibenzo[a,d][7]annulen-5-ylidene)-1-piperidinyl]-2-oxoethyl carbamate]"
1000,78,"CC(C)(C)OC(=O)NCC(=O)N1CCC(=C2c3ccccc3CSc3ccccc32)CC1 [Example 24, t-butyl 2-(4-dibenzo[b,e]thiepin-11(6H)-ylidene-1-piperidinyl)-2-oxoethylcarbamate]"
398,82,"CC(C)(C)OC(=O)N[C@@H](CO)CC(=O)N1CCC(=C2c3ccccc3C=Cc3ccccc32)CC1 [Example 68, (R)-t-butyl 3-[4-(5H-dibenzo[a,d][7]annulen-5-ylidene)-1-piperidinyl]-1-(hydroxymethyl)-3-oxopropylcarbamate]"
